{"source": "the Kinase Knowledgebase extract (Sharma et al. 2016)", "data": [{"target": "CDK2 (human) (UniProt P24941)", "assay": "Enzyme Assay", "units": {"IC50": "nM"}, "values": [{"compound": "COc1cccc(C(=O)c2sc(Nc3ccc(N4CCC(N5CCCC(O)C5)CC4)cc3)nc2N)c1", "note": "(configuration not stated)", "IC50": 970}, {"compound": "Nc1nc(Nc2ccc(N3CCC(N4CCCC4)CC3)cc2)sc1C(=O)c1ccc2c(c1)OCCO2", "IC50": 3490}, {"compound": "Cc1cccc(C(=O)c2sc(Nc3ccc(N4CCC(N5CCCCC5)CC4)cc3)nc2N)c1", "IC50": 2920}, {"compound": "CCc1cccc(C(=O)c2sc(Nc3ccc(N4CCC(N5CCNCC5)CC4)cc3)nc2N)c1", "IC50": 989}]}, {"target": "CDK2 (human) (UniProt P24941)", "assay": "Enzyme Assay", "remark": "another data set of the same source", "units": {"IC50": "nM"}, "values": [{"compound": "Cc1cccc(C(=O)c2sc(Nc3ccc(N4CCC(N(C)C)CC4)cc3)nc2N)c1", "IC50": 3520}, {"compound": "Cc1cccc(C(=O)c2sc(Nc3ccc(N4CCC(N5CCCCC5)CC4)cc3)nc2N)c1", "IC50": 2920}, {"compound": "Cc1cccc(C(=O)c2sc(Nc3ccc(N4CCC(N5CCCC5)CC4)cc3)nc2N)c1", "IC50": 2620}]}]}
